Strand notation (5' to 3'): a small letter for the sugar, then the base; units joined by * are phosphorothioate-linked, units joined directly phosphodiester-linked; [ ] holds rarer units or linkages, { } end groups; capitals alone tell only the bases. d = 2'-deoxy (DNA); m = 2'-O-methyl; f = 2'-fluoro
Test system: human EPAS1 (Hif2α) cDNA in psiCHECK2 (Renilla luciferase/EPAS1 fusion mRNA) in Hep3B cells
Experiment: Efficacy screen of Hif2α RNAi triggers in vitro, dual-luciferase reporter assay (1 nM and 0.1 nM)
Type: cell-based
Conditions: Hep3B cells co-transfected with EPAS1-psiCHECK2, Renilla luciferase normalized to firefly luciferase
Outline: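 Knockdown read by dual-luciferase assay: Renilla signal from the Renilla/EPAS1 fusion transcript divided by firefly luciferase expressed from the same plasmid. Triggers (modified canonical siRNAs, 1 nM or 0.1 nM) were co-transfected with 25 ng reporter plasmid per well into human hepatocellular carcinoma Hep3B cells.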

Substance | Relative Rluc-Hif2α (0.1 nM RNAi trigger) | Relative Rluc-Hif2α (1 nM RNAi trigger)
2390 (sense fAmCfUmAfUmUfUmAfGmUfAmAfGmCfCmCfGmGfAdT; antisense dTfCmCfGmGfGmCfUmUfAmCfUmAfAmAfUmAfGmUdT*dT; siRNA) [compound 2390] | 0.772 ± 0.175 | 0.568 ± 0.108
2391 (sense fAmGfAmAfAmUfUmCfCmUfUmAfGmUfCmAfUmGfAdT; antisense dTfCmAfUmGfAmCfUmAfAmGfGmAfAmUfUmUfCmUdT*dT; siRNA) [compound 2391] | 0.273 ± 0.006 | 0.129 ± 0.015
2392 (sense fCmAfUmUfAmAfGmGfGmCfAmUfUmUfUmAfCmCfAdT; antisense dTfGmGfUmAfAmAfAmUfGmCfCmCfUmUfAmAfUmGdT*dT; siRNA) [compound 2392] | 0.636 ± 0.039 | 0.283 ± 0.052
2393 (sense fUmAfAmGfGmGfCmAfUmUfUmUfAmCfCmCfUmUfAdT; antisense dTfAmAfGmGfGmUfAmAfAmAfUmGfCmCfCmUfUmAdT*dT; siRNA) [compound 2393] | 0.862 ± 0.388 | 1.049 ± 0.089
2394 (sense fAmGfCmUfUmCfAmUfAmUfUmAfAmCfCmCfUmAfAdT; antisense dTfUmAfGmGfGmUfUmAfAmUfAmUfGmAfAmGfCmUdT*dT; siRNA) [compound 2394] | 0.533 ± 0.076 | 0.254 ± 0.026
2395 (sense fUmAfUmUfAmAfCmCfCmUfAmCfCmUfGmUfCmAfAdT; antisense dTfUmGfAmCfAmGfGmUfAmGfGmGfUmUfAmAfUmAdT*dT; siRNA) [compound 2395] | 0.494 ± 0.104 | 0.218 ± 0.029
2396 (sense fUmUfAmAfCmCfCmUfAmCfCmUfGmUfCmAfAmCfAdT; antisense dTfGmUfUmGfAmCfAmGfGmUfAmGfGmGfUmUfAmAdT*dT; siRNA) [compound 2396] | 1.321 ± 0.070 | 0.939 ± 0.299
2397 (sense fAmCfCmCfUmAfCmCfUmGfUmCfAmAfCmGfUmAfAdT; antisense dTfUmAfCmGfUmUfGmAfCmAfGmGfUmAfGmGfGmUdT*dT; siRNA) [compound 2397] | 0.254 ± 0.048 | 0.119 ± 0.024
2398 (sense fCmCfCmUfAmCfCmUfGmUfCmAfAmCfGmUfAmAfAdT; antisense dTfUmUfAmCfGmUfUmGfAmCfAmGfGmUfAmGfGmGdT*dT; siRNA) [compound 2398] | 1.047 ± 0.047 | 0.534 ± 0.043
2399 (sense fCmCfUmAfCmCfUmGfUmCfAmAfCmGfUmAfAmCfAdT; antisense dTfGmUfUmAfCmGfUmUfGmAfCmAfGmGfUmAfGmGdT*dT; siRNA) [compound 2399] | 0.784 ± 0.071 | 0.418 ± 0.081
2400 (sense fCmUfAmCfCmUfGmUfCmAfAmCfGmUfAmAfCmGfAdT; antisense dTfCmGfUmUfAmCfGmUfUmGfAmCfAmGfGmUfAmGdT*dT; siRNA) [compound 2400] | 0.478 ± 0.028 | 0.165 ± 0.020
2401 (sense fUmAfCmCfUmGfUmCfAmAfCmGfUmAfAmCfGmAfAdT; antisense dTfUmCfGmUfUmAfCmGfUmUfGmAfCmAfGmGfUmAdT*dT; siRNA) [compound 2401] | 0.375 ± 0.062 | 0.174 ± 0.003
2402 (sense fAmCfCmUfGmUfCmAfAmCfGmUfAmAfCmGfAmUfAdT; antisense dTfAmUfCmGfUmUfAmCfGmUfUmGfAmCfAmGfGmUdT*dT; siRNA) [compound 2402] | 0.389 ± 0.060 | 0.128 ± 0.015
2403 (sense fCmCfUmGfUmCfAmAfCmGfUmAfAmCfGmAfUmUfAdT; antisense dTfAmAfUmCfGmUfUmAfCmGfUmUfGmAfCmAfGmGdT*dT; siRNA) [compound 2403] | 0.930 ± 0.132 | 0.568 ± 0.106

Reference: US9976141B2, “Compositions and methods for inhibiting gene expression of Hif2alpha” (Arrowhead Madison Inc., priority 2015, dated 2018)
